Test results: patent US6413983B1, “Benzopyranyl heterocycle derivatives, process for preparation thereof, and pharmaceutical compositions containing them” (Dongbu Hannong Chemical Co. Ltd., priority 2000, dated 2002)
Like-named read-outs stand apart in the source and are kept apart here.

Experiments:
[1] = tested on: isolated rat aorta constricted with methoxamine; assay: Vasodilation effects on isolated aorta of rats (methoxamine-constricted rings); details: isolated rat aorta constricted with methoxamine (3 μM); 50% relaxation
Text: Male Sprague-Dawly rats (350-450 g, obtained from the Experimental Animal Team of the Korea Research Institute of Chemical Technology) were knocked unconscious by hitting the occipital region, sacrificed by cervical dislocation, and underwent thoracotomy. After being quickly removed, the thoracic aorta was deprived of the adipose tissue and cut into aortic rings of 3 mm width. The aorta was lightly rubbed with cotton club soaked in a modified Krebs Henseleit buffer (Physiological Salt Solution, PSS) to remove the inner epithelial layer therefrom.
Thereafter, 3×10^−6 M methoxamine was applied to induce an intensive constriction in the vascular smooth muscle. When the vasoconstriction induced by the methoxamine was reached and maintained to a maximum, test compounds and controls were cumulatively added to the organ baths in concentrations of 1, 3, 10 and 30 μM so as to examine the vasodilation effect.
The change rate of constriction by the addition of the drugs compared to the maximal constriction induced by methoxamine was calculated to plot a concentration-relaxation response curve.

[2] = tested on: cerebral cortical neurons; assay: Protective activity for neuronal cells against iron-induced damage (LDH release); type: cell-based, rat; details: 30 μM compound, 50 uM FeSO4, 24 hours, LDH reduction rate vs control
Method: From the brains of 17-18 day-old rat embryos, cerebral cortical neurons were isolated and then, cultured at 37° C. for 7-9 days in a 5% CO2 incubator. The cortical cell cultures were washed twice with a minimum essential medium (MEM) to reduce the serum concentration to 0.2% and pre-treated for 30 min with 30 μM of each of test compounds. For the experiments, the test compounds were dissolved in DMSO and diluted in a medium. At this time, the final concentration of DMSO was not allowed to exceed 0.2%. For a control group, only vehicle was applied.
After the pre-treatment with test compounds or vehicle, FeSO4 was added to a final concentration of 50 uM, and the cultures were maintained for 24 hours in a CO2 incubator. During incubation, lactate dehydrogenase (LDH) was released into the medium upon neuronal death by the oxidative toxicity of iron. The extent of neuronal damage was assessed by measuring the amount of LDH released into the media. The protective effect of the compounds of interest on neurons was evaluated by calculating the LDH reduction rate of treatment group compared with that of the control group.

[3] = tested on: isolated rat hearts; assay: Cardioprotective activity in isolated ischemic heart models of rats (Langendorff, global ischemia/reperfusion); details: for EDP (MmHg): left ventricular end-diastolic pressure after 30 min reperfusion; for LDVP × HR (%): reperfusion double product as % of pretreatment DP, 30 min global ischemia, 30 min reperfusion; for TTC: time to contracture during global ischemia
Method: Male Sprague-Dawley rats weighing 300-450 g were anesthetized with sodium pentobarbital (100 mg/kg, i.p.). The tail vein was injected with heparin (1,000 U/kg) and then the trachea was intubated. […] A latex balloon filled with solvent (ethanol: water=1:1 (v/v)) and attached to a metal cannula was placed in the left ventricle through pulmonary vein and connected to a Isotec pressure transducer (H.S.E., Germany) for measurement of left ventricular pressure (LVP). […] Then, baseline contractile function, heart rate (HR), and coronary flow (CF) (extracorporeal electromagnetic flow probe, Narco Bio-System, U.S.A.) were measured. Cardiac contractile function was calculated by subtracting LVEDP from LV peak systolic pressure (LVSP), yielding developed pressure (LVDP). Double product (DP), another important parameter for assessing cardiac performance, was calculated by multiplying HR by LVDP. Throughout the experiment, all these parameters were measured, and calculated before and 10 min after pretreatment with each compound and 30 min after the onset of reperfusion with buffer. Data on reperfusion DP were further expressed as the percentage to pretreatment DP.
We then rendered the hearts globally ischemic by completely shutting off the perfusate for 30 min. Severity of ischemia was determined as the time to contracture (TTC, min) during global ischemia in which the first 5 mmHg increase in EDP was observed. Then, the hearts were reperfused and, 30 min later, contractile function (LVDP, DP) and cumulative reperfusion lactate dehydrogenase (LDH) release were measured. LDH was measured as a sensitive index for loss of cell viability with a kit supplied by Boerhinger Mannheim based on the technique of Wroblewski and LaDue [F. Wroblewski and JS.

[4] = tested on: ischemic myocardium damage model of anesthetized rats; assay: Cardioprotective activity in ischemic heart models of rats (LAD occlusion/reperfusion, anesthetized rats); type: in vivo, rat; details: rat, in vivo, iv, 0.3 mg/kg
Method: After trachetomy, the rats were rendered to respire artificially at a rate of 60/min with a stroke volume of 10 ml/kg. Cannulars were inserted into the fermoral vein and the fermoral artery and used for drug administration and blood pressure measurement, respectively.
In the ischemic myocardial injury models, the body temperature has an important influence on the results. To avoid the change in the body temperature, a body temperature measuring probe was inserted into the rectum of each rat and the body temperature was constantly kept at 37° C. with the aid of a homeothermic blanket control unit.
Afterwards, during testing, a continuous measurement was made of the mean arterial blood pressures and heart rates from the rats. For the measurement of the blood pressure, a pressure transducer, such as that manufactured by Grass Ins., MA, U.S.A., identified as Model Statham P23XL, was used.
The heart rate was measured by a tachometer, such as that manufactured by Gould Inc., Ohio, U.S.A., identified as Biotachometer. In addition, all of the changes occurring were continuously recorded through the Gould 2000 chart recorder, manufactured by Gould Inc.
The left coronary artery was occluded according to the Selye H. method as follows. The rats underwent a left thoracotomy operation for partial opening of the chest and the right-side chest was pressurized by the middle finger of the left hand to push the heart out. Immediately after the left anterior descending coronary artery hereinafter referred to as (LAD) was carefully stitched using a suture needle with 5-0 silk ligature, the heart was then repositioned in the thoracic cavity while both ends of the ligature were situated outside. The opposite ligature ends were passed through a PE tube (PE100, 2.5 cm) and allowed to stand loose for 20 min for stabilization. Via the cannula inserted into the femoral vein, vehicles or drugs were administered into the rats which were rendered to stand for 30 min in order to sufficiently elicit the efficacies of the drugs.
Next, the PE tube which had the doubled strands of the ligature passed therethrough was pushed toward the heart and then, set upright by tightly pulling end regions of the ligature with a hemostatic pincette while pressing the coronary artery.
After the reocclusion of the coronary artery in accordance with the above procedure, the rats were administered with 2 ml of a 1% Evans blue through an intravenous route. Subsequently, an excess of pentobarbital was intravenously injected to kill the rats, after which the heat was removed and then, deprived of the right ventricle and both atria. The left ventricle was cut horizontally to the heart apex into 5 or 6 slices which were weighed. From the surface of each slice, images were input with the aid of a Hi-scope into a computer installed with an image analyzing program (Image Pro Plus). From the images input into the computer, the area of the normal blood stream tissue region which appeared blue in a computer monitor and the area which appeared colorless were measured. The percentage of the colorless area to the total area of each slice was calculated and multiplied by the weight of each slice to determine the area at risk (AAR) of each slice. The AAR obtained from each slice was summed for all slices and the total AAR was divided by the total weight of the left ventricle to yield % AAR, as shown in the following mathematical formula 1:
AAR(%)=(summed AAR for all slices)/(total weight of left ventricle)×100 [Mathematical Formula 1]
During this fixation, 2,3,5-triphenyltetrazolium chloride was reduced into formazan dye by the myocardial dehydrogenase and its cofactor NADH, so that the normal regions of the tissue were colored brick-red. In contrast, the infarct zones of the tissue were deficient in the dehydrogenase and its cofactor, so that no reduction occurred on the 2,3,5-triphenyltetrazolium, allowing the color to remain unchanged.

[5] = 10 μM, cumulative reperfusion LDH release

Molecule	IC50 [1]	% Protection [2]	LDH (U/g) [3, 5]	EDP (MmHg) ([3]; 10 μM)	LDVP × HR (%) ([3]; 10 μM)	TTC ([3]; 10 μM)	other results
CC1(C)Oc2ccc(C#N)cc2C(N2CCCC2=O)C1O (stereo not shown) [CromaKalim, Cromakalim, reference compound]	0.067 µM	–	–	–	–	–	–
CCOC(=O)[C@@H]1Cc2ccccc2N1[C@@H]1c2cc([N+](=O)[O-])ccc2O[C@](C)(C(OC)OC)[C@H]1O [Example 4, 1-[(2S, 3S, 4R)-3,4-dihydro-2-dimethoxymethyl-3-hydroxy-2-methyl-6-nitro-2H-1-benzopyran-4-yl]-(2S)-2,3-dihydro-1H-indole-2-carboxylic acid ethyl ester]	–	–	–	–	–	–	% Protection ([2]; listed as EX. 4): 98%
COC(=O)[C@H]1Cc2ccccc2N1[C@H]1c2cc([N+](=O)[O-])ccc2O[C@](C)(C(OC)OC)[C@@H]1O [Example 5, 1-[(2S, 3R, 4S)-3,4-dihydro-2-dimethoxymethyl-3-hydroxy-2-methyl-6-nitro-2H-1-benzopyran-4-yl]-1H-(2R)-2,3-dihydroindole-2-carboxylic acid methyl ester]	–	79%	–	–	–	–	–
COC(=O)[C@@H]1Cc2ccccc2N1[C@H]1c2cc([N+](=O)[O-])ccc2O[C@](C)(C(OC)OC)[C@@H]1O [Example 6, 1-[(2S, 3R, 4S)-3,4-dihydro-2-dimethoxymethyl-3-hydroxy-2-methyl-6-nitro-2H-1-benzopyran-4-yl]-1H-(2S)-2,3-dihydroindole-2-carboxylic acid methyl ester]	15.6 µM	–	10.4 U/g	21 MmHg	62.2%	24.5 min	–
CCOC(=O)[C@H]1Cc2cc(OC)ccc2N1[C@H]1c2cc([N+](=O)[O-])ccc2O[C@](C)(C(OC)OC)[C@@H]1O [Example 11, 1-[(2S, 3R, 4S)-3,4-dihydro-2-dimethoxymethyl-3-hydroxy-2-methyl-6-nitro-2H-1-benzopyran-4-yl]-(2R)-2,3-dihydro-1H-5-methoxyindole-2-carboxylic acid ethyl ester]	16.5 µM	–	–	14.7 MmHg	66.5%	22.9 min	LDH (U/g) [3]: 13.3 U/g; AAR/LV (%) [4]: 38.3%; IZ/AAR (%) [4]: 42.1%
CCOC(=O)[C@@H]1Cc2cc(OC)ccc2N1[C@H]1c2cc([N+](=O)[O-])ccc2O[C@](C)(C(OC)OC)[C@@H]1O [Example 12, 1-[(2S, 3R, 4S)-3,4-dihydro-2-dimethoxymethyl-3-hydroxy-2-methyl-6-nitro-2H-1-benzopyran-4-yl]-(2S)-2,3-dihydro-1H-5-methoxyindole-2-carboxylic acid ethyl ester]	–	85%	–	–	–	–	–
CCOC(=O)[C@H]1Cc2cc(F)ccc2N1[C@H]1c2cc([N+](=O)[O-])ccc2O[C@](C)(C(OC)OC)[C@@H]1O [Example 15, 1-[(2S, 3R,4S)-3,4-dihydro-2-dimethoxymethyl-3-hydroxy-2-methyl-6-nitro-2H-1-benzopyran-4-yl]-(2R)-2,3-dihydro-1H-5-fluoroindole-2-carboxylic acid ethyl ester]	> 30 µM	–	12.0 U/g	2.7 MmHg	53.3%	24.8 min	–
CCOC(=O)[C@@H]1Cc2cc(F)ccc2N1[C@H]1c2cc([N+](=O)[O-])ccc2O[C@](C)(C(OC)OC)[C@@H]1O [Example 16, 1-[(2S, 3R, 4S)-3,4-dihydro-2-dimethoxymethyl-3-hydroxy-2-methyl-6-nitro-2H-1-benzopyran-4-yl]-(2S)-2,3-dihydro-1H-5-fluoroindole-2-carboxylic acid ethyl ester]	–	73%	–	–	–	–	–
COC(=O)c1cc2ccccc2n1[C@H]1c2cc([N+](=O)[O-])ccc2O[C@](C)(C(OC)OC)[C@@H]1O [Example 48, 1-[(2S, 3R, 4S)-3,4-dihydro-2-dimethoxymethyl-3-hydroxy-2-methyl-6-nitro-2H-1-benzopyran-4-yl]-1H-indole-2-carboxylic acid methyl ester]	24 µM	–	16.7 U/g	9.5 MmHg	79.5%	22.0 min	–
COC(=O)[C@H]1CCc2ccccc2N1[C@H]1c2cc([N+](=O)[O-])ccc2O[C@](C)(C(OC)OC)[C@@H]1O [Example 54, 1-[(2S, 3R, 4S)-3,4-dihydro-2-dimethoxymethyl-3-hydroxy-2-methyl-6-nitro-2H-1-benzopyran-4-yl]-(2R)-1,2,3,4-tetrahydro-1H-quinoline-2-carboxylic acid methyl ester]	–	100%	–	–	–	–	% Protection ([2]; listed as EX. 54): 101%
COC(=O)[C@H]1CCc2ccccc2N1[C@@H]1c2cc([N+](=O)[O-])ccc2O[C@](C)(C(OC)OC)[C@H]1O [Example 56, 1-[(2S, 3S, 4R)-3,4-dihydro-2-dimethoxymethyl-3-hydroxy-2-methyl-6-nitro-2H-1-benzopyran-4-yl]-(2R)-1,2,3,4-tetrahydro-1H-quinoline-2-carboxylic acid methyl ester]	11.4 µM	–	18.8 U/g	29.0 MmHg	61.0%	22.2 min	–
(2S, 2aR, 10aS)-[(3,4-b)-2a,10a-dihydro-2-dimethoxymethyl-2-methyl-12-nitro-2H-1-benzopyrano]-[(1,2-d)-10H-indolino]-4-oxomorpholine [Example 62]	> 30 µM	–	20.5 U/g	36.5 MmHg	67.2%	23.1 min	–
(2S, 2aS, 10aR)-[(3,4-b)-2a,10a-dihydro-2-dimethoxymethyl-2-methyl-12-nitro-2H-1-benzopyrano]-[(1,2-d)-10H-indolino]-4-oxomorpholine [Example 63]	–	100%	–	–	–	–	–
